Read-outs that look alike come from different tables or passages of the source.
Experiments:
[1] = humans; cited from earlier work
[2] = molecular target: T1, organic anion transporter-3 (OAT3) (Homo sapiens, UniProt Q8TCC7); experiment: Uptake in HEK-293 cells transfected with OAT3 vs empty vector; details: HEK-293/OAT3, 5 minutes incubation, 0.5 μg/mL
T1 sequence (Q8TCC7 1-542): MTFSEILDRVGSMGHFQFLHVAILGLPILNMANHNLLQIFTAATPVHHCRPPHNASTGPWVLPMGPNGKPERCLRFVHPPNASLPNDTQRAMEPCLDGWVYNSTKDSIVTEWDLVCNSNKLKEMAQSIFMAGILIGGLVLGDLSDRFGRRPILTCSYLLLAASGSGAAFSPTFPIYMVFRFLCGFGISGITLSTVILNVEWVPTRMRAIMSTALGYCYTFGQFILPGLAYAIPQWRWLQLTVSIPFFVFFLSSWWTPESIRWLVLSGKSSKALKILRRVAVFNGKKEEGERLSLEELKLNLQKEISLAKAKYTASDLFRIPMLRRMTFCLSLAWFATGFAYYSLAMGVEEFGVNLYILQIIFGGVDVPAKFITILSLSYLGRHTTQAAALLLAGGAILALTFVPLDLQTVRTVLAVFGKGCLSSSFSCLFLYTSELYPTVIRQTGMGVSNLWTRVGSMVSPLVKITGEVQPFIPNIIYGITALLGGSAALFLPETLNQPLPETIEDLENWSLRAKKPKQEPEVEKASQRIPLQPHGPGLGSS

[3] = molecular target: T2, organic cation transporter-2 (OCT2) (Homo sapiens, UniProt O15244); experiment: Uptake in HEK-293 cells transfected with OCT2 vs empty vector; details: HEK-293/OCT2, 5 minutes incubation, 0.5 μg/mL
T2 sequence (O15244 1-555): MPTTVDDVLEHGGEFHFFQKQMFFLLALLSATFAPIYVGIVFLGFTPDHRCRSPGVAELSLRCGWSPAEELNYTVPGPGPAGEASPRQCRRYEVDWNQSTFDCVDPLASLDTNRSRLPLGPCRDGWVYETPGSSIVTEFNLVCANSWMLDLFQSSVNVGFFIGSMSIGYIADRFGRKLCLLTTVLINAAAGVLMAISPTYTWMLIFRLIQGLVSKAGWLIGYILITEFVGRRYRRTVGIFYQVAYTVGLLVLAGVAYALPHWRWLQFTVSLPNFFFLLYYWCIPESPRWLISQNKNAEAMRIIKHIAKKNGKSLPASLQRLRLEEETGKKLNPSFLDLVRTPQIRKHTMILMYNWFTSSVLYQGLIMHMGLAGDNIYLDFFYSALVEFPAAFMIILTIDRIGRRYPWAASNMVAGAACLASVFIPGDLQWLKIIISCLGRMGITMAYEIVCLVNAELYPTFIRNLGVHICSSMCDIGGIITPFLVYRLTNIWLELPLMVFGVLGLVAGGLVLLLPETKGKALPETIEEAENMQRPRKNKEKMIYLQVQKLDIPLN

human MRP4 = molecular target: T3, human MRP4 (Homo sapiens, UniProt O15439); experiment: Intracellular accumulation in Saos2-MRP4 cells vs Saos2-pcDNA3.1; details: Saos2-MRP4 vs Saos2-pcDNA3.1, 0.5 μg/mL, 37°C
T3 sequence (O15439 1-1325): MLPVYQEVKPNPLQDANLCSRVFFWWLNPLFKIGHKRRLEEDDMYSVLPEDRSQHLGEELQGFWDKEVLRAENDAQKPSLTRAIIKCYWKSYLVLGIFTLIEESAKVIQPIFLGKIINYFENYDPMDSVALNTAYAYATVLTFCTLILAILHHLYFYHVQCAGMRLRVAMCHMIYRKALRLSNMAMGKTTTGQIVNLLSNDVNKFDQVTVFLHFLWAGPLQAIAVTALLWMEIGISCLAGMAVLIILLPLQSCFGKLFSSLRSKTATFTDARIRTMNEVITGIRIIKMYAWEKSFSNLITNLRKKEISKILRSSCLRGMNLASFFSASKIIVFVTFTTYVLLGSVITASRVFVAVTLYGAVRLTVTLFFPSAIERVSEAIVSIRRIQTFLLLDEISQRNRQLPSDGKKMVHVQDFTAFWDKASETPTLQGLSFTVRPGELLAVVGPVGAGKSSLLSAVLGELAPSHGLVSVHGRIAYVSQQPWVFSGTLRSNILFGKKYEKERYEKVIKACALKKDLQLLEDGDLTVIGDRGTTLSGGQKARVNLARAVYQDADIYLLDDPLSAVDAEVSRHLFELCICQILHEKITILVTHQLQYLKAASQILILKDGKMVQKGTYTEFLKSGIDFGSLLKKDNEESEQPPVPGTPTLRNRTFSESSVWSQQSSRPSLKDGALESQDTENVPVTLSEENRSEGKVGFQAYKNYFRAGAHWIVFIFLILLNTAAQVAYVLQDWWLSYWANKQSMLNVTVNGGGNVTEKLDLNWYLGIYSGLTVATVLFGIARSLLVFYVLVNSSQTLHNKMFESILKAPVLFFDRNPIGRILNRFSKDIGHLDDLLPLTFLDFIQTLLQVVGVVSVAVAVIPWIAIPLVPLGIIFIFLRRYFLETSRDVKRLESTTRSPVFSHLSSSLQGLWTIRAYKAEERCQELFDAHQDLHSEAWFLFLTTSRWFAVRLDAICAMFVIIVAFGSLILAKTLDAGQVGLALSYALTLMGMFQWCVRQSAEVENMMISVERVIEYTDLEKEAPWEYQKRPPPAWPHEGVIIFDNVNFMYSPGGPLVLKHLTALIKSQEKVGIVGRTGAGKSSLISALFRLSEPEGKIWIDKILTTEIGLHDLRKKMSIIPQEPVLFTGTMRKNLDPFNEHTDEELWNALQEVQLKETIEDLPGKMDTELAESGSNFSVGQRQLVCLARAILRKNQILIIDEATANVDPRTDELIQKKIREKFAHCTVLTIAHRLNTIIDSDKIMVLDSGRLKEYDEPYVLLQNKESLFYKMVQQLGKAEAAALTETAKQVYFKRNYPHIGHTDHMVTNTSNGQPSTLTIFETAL

Row | SMILES | Differences in unbound fraction between strains (plasma from each mouse strain, equilibrium dialysis) | Renal clearance component as share of overall elimination [1] | Uptake vs empty vector HEK-293 cells [2] | Uptake vs empty vector HEK-293 cells ([2]; listed as Erlotinib) | Uptake vs empty vector HEK-293 cells [3] | Uptake vs empty vector HEK-293 cells ([3]; listed as Erlotinib) | Intracellular accumulation vs control cells (human MRP4) | Differences in unbound fraction between strains (mouse, plasma) | Unbound fraction (fu) (mouse, plasma) | Systemic exposure relative to that of erlotinib [1]
1 | C#Cc1cccc(Nc2ncnc3cc(OCCOC)c(OCCOC)cc23)c1 [erlotinib, Erlotinib] | No significant differences | ~ 10% | significantly higher | higher | significantly increased | higher | did not show a significant difference | – | – | –
2 | C#Cc1cccc(Nc2ncnc3cc(OCCOC)c(OCCO)cc23)c1 [OSI-420] | – | – | significantly higher | – | significantly increased | – | did not show a significant difference | No significant differences | 6.6 % ± 0.7% | 10-20%
